Bounds are passed on as bounds.

For one data set, the system named is zebrafish embryos. Kind of data set: Zebrafish embryo gut formation (IFABP expression / gut reporter). The data set is classed as in vivo. The note with it: morpholino microinjection 50 μM; gut reporter fluorescence 4 dpf, IFABP in situ hybridization 3 dpf. The protocol:
FIG. 5: YES1 is essential for tumorgenicity of β-catenin-active cells. (A) V5 immune complexes were isolated from HuTu80 or SW480 cells stably expressing WT or Y357F V5-epitope-tagged YAP1 or control V5-LacZ Immune complexes were analyzed by immunoblotting with a phosphotyrosine antibody. (B) HuTu80 or SW480 cells stably expressing V5-epitope-tagged WT YAP1 were treated for 6 hr with 0.5 or 2 μM of dasatinib. V5 immune complexes were analyzed by immunoblotting with a phosphotyrosine antibody. (C) Transgenic IFABP:RFP zebrafish were injected with 50 μM of YAP1- or YES1-specific morpholinos. Red fluorescence was assessed 4 dpf, or IFABP expression was assessed 3 dpf by using whole-mount in situ hybridization with an IFABP-specific probe. (D) Embryos were exposed to 2 μM of dasatinib at 2 dpf, and IFABP expression was assessed after 24 hr by using whole-mount in situ hybridization.
Zebrafish were maintained according to institutional animal care and use committee (IACUC-BIDMC) protocols. Validated morpholinos (MO) (Gene-Tools, PhiloMath, Oreg.) designed against the ATG site of YES1 (5′-CC […]-3′, SEQ ID NO: 1) (Jopling and Hertog, 2007) or YAP1 (5′-[…]-3′, SEQ ID NO: 2) (Skouloudaki et al., 2009) were injected into WT or gut reporter (Tg(fabp2:RFP)as200) zebrafish at the one-cell stage. […]

A further data set relates to KM12. The experiment in a line: Small-molecule inhibitor proliferation assay (crystal violet), KM12. The data set is classed as cell-based. The conditions noted are these: Homo sapiens, 168 h, β-catenin pathway Non-active, proliferation 7 d post treatment, read-out: IC50 Dasatinib. As to the method: (§1) (A) The indicated cancer cell lines were treated with various concentrations of dasatinib and proliferation was measured 7 days post treatment. (B) HCT116 or (C) HuTu80 cells stably expressing a dastinib resistant YES1 (T348I) or SRC (T341I) were treated as in (A). (D) Representative picture of HCT116 cells treated as in (B).
(§2) 6000 cell/well were plated in 24-well plates and the indicated doses of dasatinib (Selleck, Houston) or vehicle was added 24 hr later. Proliferation was measured after 7 d by crystal violet staining.

In a further data set the test system is DLD1. The experiment in a line: Small-molecule inhibitor proliferation assay (crystal violet), DLD1. The data set is classed as cell-based. The conditions noted are these: Homo sapiens, DLD-1, 168 h, β-catenin pathway active, proliferation 7 d post treatment, read-out: IC50 Dasatinib. As to the method:
as §1, §2

Another data set deals with HCT116. The experiment in a line: Small-molecule inhibitor proliferation assay (crystal violet), HCT116. The conditions noted are these: Homo sapiens, HCT-116, 168 h, β-catenin pathway active, proliferation 7 d post treatment, read-out: IC50 Dasatinib. The data set is classed as cell-based. As to the method: as §1, §2
A further data set concerns HT55. The experiment in a line: Small-molecule inhibitor proliferation assay (crystal violet), HT55. Format: cell-based. The conditions noted are these: Homo sapiens, 168 h, β-catenin pathway active, proliferation 7 d post treatment, read-out: IC50 Dasatinib. As to the method:
as §1, §2

A further data set relates to SW480. The experiment in a line: Small-molecule inhibitor proliferation assay (crystal violet), SW480. The note with it: Homo sapiens, 168 h, β-catenin pathway active, proliferation 7 d post treatment, read-out: IC50 Dasatinib. Format: cell-based. The protocol:
as §1, §2

In another data set the test system is WT organoids. The experiment in a line: Three-dimensional primary colon organoid culture, WT. The note with it: WT organoids treated with dasatinib. The data set is classed as cell-based, mouse. The protocol: (A) Representative images of colon organoids derived from WT or APC null mice treated for 6 days with 100 nM of dasatinib. (B) Quantification of results in (A). Error bars represent SD from four replicates. Blank denotes wells where no organoids were added. (C) WT or AXIN1 mutant (Masterblind) zebrafish were treated with 2 μM of dasatinib from 6-8 dpf. Arrow indicates developing gut. (D) H&E staining of zebrafish in (C) width of epithelium is noted by bars. (E) The number of epithelial cells/section was measured in WT or AXIN1 mutant zebrafish treated with 2 μM of dasatinib or DMSO. Error bars represent the SD from 20 different sections from five treated fish. p value was calculated by using Student's t test.
(§3) Colons from Apc flox/flox; villin-CreER mice were dissected lengthwise and washed in cold PBS. 0.5-1 cm segment per dish was minced extensively on ice and embedded in a 3D collagen gel by using a double-dish culture system (Ootani et al., 2009). Tamoxifen (Sigma, 2 μM in ethanol) or vehicle (ethanol) was applied on the day of initial plating for 7 days to generate APC null or WT organoids.

For a further data set, the system named is RKO. The experiment in a line: Small-molecule inhibitor proliferation assay (crystal violet), RKO. The data set is classed as cell-based. The conditions noted are these: Homo sapiens, 168 h, β-catenin pathway Non-active, proliferation 7 d post treatment, read-out: IC50 Dasatinib. The protocol: as §1, §2
For a further data set, the system named is Colo205. The experiment in a line: Small-molecule inhibitor proliferation assay (crystal violet), Colo205. The data set is classed as cell-based. The conditions noted are these: Homo sapiens, COLO 205, 168 h, β-catenin pathway active, proliferation 7 d post treatment, read-out: IC50 Dasatinib. As to the method: as §1, §2
For a further data set, the system named is APC null organoids. Kind of data set: Three-dimensional primary colon organoid culture, APC null. Format: cell-based, mouse. The conditions noted are these: 50 nM. As to the method:
[…] (B) Quantification of results in (A). Error bars represent SD from four replicates. Blank denotes wells where no organoids were added. (C) WT or AXIN1 mutant (Masterblind) zebrafish were treated with 2 μM of dasatinib from 6-8 dpf. Arrow indicates developing gut. (D) H&E staining of zebrafish in (C) width of epithelium is noted by bars. (E) The number of epithelial cells/section was measured in WT or AXIN1 mutant zebrafish treated with 2 μM of dasatinib or DMSO. Error bars represent the SD from 20 different sections from five treated fish. p value was calculated by using Student's t test.
as §3

The subject of the next data set is HuTu80. The experiment in a line: Small-molecule inhibitor proliferation assay (crystal violet), HuTu80. The data set is classed as cell-based. The conditions noted are these: Homo sapiens, 168 h, β-catenin pathway active, proliferation 7 d post treatment, read-out: IC50 Dasatinib. As to the method:
as §1, §2

On to “5′-CC TCTTTACTCTTGACACAGCCCAT-3′ (CCTCTTTACTCTTGACACAGCCCAT; morpholino backbone, further chemistry not given here) [YES1 morpholino]”, for which the gut formation entry with zebrafish embryos was “dramatically inhibited”.
As usually defined, the IC50 is the midpoint of a concentration-inhibition curve. For `Cc1nc(Nc2ncc(C(=O)Nc3c(C)cccc3Cl)s2)cc(N2CCN(CCO)CC2)n1` [dasatinib], the IC50 was over 800 nM with KM12; 125 nM with DLD1; 68 nM with HCT116; 70 nM in the data set on HT55; 50 nM in the data set with SW480; over 800 nM in the data set with RKO. For the same compound, the IC50 in the data set with Colo205 came to 80 nM; in the data set with HuTu80, 70 nM. Further, the “growth inhibition of WT organoids” value in the data set with WT organoids is given as 5%. The “decrease in growth of APC null organoids” value with APC null organoids came out at 70%.
For the compound “5′-AGCAACATTAACAACTCACTTTAGG-3′ (morpholino backbone, further chemistry not given here) [YAP1 morpholino]”, in the data set with zebrafish embryos, the gut formation entry was “dramatically inhibited”.
